The record followed here is patent US8722687B2, “Imidazo [1,2-A]pyridine derivatives as FGFR kinase inhibitors for use in therapy” (Astex Therapeutics Ltd, priority 2009, dated 2014).

Structures are written as SMILES.

The target of test [1] is T1, Ba/F3-TEL-FGFR3 cells (Homo sapiens, UniProt P22607).
T1 construct: fused on or other part: TEL (ETV6) N-terminal oligomerising part fused to the FGFR3 kinase part; P41212 (Transcription factor ETV6)
As to the kind of experiment: Ba/F3-TEL-FGFR3 cell proliferation assay (Alamar Blue). It is filed as cell-based, murine. The conditions noted are these: for GI50: 72 hours, read-out: BaF3-TEL-FGFR3 prolif. As for the experimental part:
Ba/F3-TEL-FGFR3 & Ba/F3 (WT) Cell Proliferation Assays
Stably transfected Ba/F3-TEL-FGFR3 cells were plated out into black 96-well tissue culture plates with clear bottoms in RPMI medium containing 10% FBS and 0.25 mg/ml G418 at a density of 5×10^3 cells/well (200 μl per well). The parental wild-type Ba/F3 cells (DSMZ no.: ACC 300) were plated out into black 96-well tissue culture plates with clear bottoms in RPMI medium containing 10% FBS and 2 ng/ml mouse IL-3 (R&D Systems) at a density of 2.5×10^3 cells/well (200 μl per well). Plates were placed in an incubator overnight before adding the compounds the following day. Dilutions of compounds were made in DMSO starting at 10 mM and were diluted into the wells to give a final DMSO concentration of 0.1% in assay. Compounds were left on the cells for 72 hours before the plates were removed from the incubator and 20 μl of Alamar Blue™ (Biosource) was added to each well. Plates were placed in the incubator for 4-6 hours before reading plates at 535 nm (excitation)/590 nm (emission) on a Fusion plate reader (Packard). Where inhibition is high an IC50 can be determined.

For test [2], the system named is human prostate cancer PC3 cells. As to the kind of experiment: EB1 cellular assay (Eb1 Comet assay, microtubule disruption). The format is cell-based. As to conditions: PC-3, lowest active concentration: Eb1 foci absent in at least 50% of treated PC3 cells, 1 hour, read-out: Eb1 LAC. As for the experimental part: The Eb1 Comet assay relies on the detection of the Eb1 protein at the plus end of polymerizing microtubules (Mimori-Kiyosue, 2000) using indirect immunofluorescence. Disruption of microtubule dynamics through de-polymerization or stabilization results in a de-localization of Eb1 from the growing microtubule ends and this is visualized by the disappearance of Eb1 containing cytoplasmic foci.
Briefly, human prostate cancer PC3 cells obtained from the American Type Culture Collection were grown in 96-well plates (Greiner, cat. no. 655090) in HAM's F12 medium as recommended by the provider (ATCC). The cells were treated for 1 hour at 37° C. with compounds dissolved in DMSO (0.6% final DMSO concentration). The culture medium was then removed by aspiration and the cells were fixed by adding cold methanol (−20° C.). After a 15 minutes incubation at −20° C., the cells were washed twice with DPBS (Gibco) containing 0.5% Triton X-100. Mouse Eb1 antibody (BD Transduction Laboratories, cat. no. 610534) was added to the cells (1/250 dilution in DPBS containing 1% BSA) and incubated overnight at room temperature. The antibody was subsequently removed and the cells washed twice with DPBS, 0.5% Triton X-100. Secondary goat anti-mouse antibody conjugated to Alexa 488 fluorescent dye (Molecular Probes) was added at a 1/500 dilution in DPBS, 1% BSA and incubated for 1 hour at 37° C. The cells were washed twice with DPBS, 0.5% Triton X-100 and then DPBS containing 0.5% Triton X-100 and 1/5000 Hoechst 33342 (Molecular Probes) was added. Microscopy based Eb1 foci visualization was carried out using an IN Cell Analyser 1000 (Amersham Biosciences) using a 20× objective. Compound dependent microtubule disruption was visually determined by the disappearance in Eb1 foci. The lowest active concentration (LAC) was determined as the concentration where Eb1 foci were absent in at least 50% of the treated cells. Herein the effects of test compounds are expressed as pLAC (the negative log value of the LAC-value)

For test [3], the target named is T2, VEGFR2 (Homo sapiens, UniProt P35968).
T2 construct: purchased Upstate
T2 sequence (P35968 20-1356): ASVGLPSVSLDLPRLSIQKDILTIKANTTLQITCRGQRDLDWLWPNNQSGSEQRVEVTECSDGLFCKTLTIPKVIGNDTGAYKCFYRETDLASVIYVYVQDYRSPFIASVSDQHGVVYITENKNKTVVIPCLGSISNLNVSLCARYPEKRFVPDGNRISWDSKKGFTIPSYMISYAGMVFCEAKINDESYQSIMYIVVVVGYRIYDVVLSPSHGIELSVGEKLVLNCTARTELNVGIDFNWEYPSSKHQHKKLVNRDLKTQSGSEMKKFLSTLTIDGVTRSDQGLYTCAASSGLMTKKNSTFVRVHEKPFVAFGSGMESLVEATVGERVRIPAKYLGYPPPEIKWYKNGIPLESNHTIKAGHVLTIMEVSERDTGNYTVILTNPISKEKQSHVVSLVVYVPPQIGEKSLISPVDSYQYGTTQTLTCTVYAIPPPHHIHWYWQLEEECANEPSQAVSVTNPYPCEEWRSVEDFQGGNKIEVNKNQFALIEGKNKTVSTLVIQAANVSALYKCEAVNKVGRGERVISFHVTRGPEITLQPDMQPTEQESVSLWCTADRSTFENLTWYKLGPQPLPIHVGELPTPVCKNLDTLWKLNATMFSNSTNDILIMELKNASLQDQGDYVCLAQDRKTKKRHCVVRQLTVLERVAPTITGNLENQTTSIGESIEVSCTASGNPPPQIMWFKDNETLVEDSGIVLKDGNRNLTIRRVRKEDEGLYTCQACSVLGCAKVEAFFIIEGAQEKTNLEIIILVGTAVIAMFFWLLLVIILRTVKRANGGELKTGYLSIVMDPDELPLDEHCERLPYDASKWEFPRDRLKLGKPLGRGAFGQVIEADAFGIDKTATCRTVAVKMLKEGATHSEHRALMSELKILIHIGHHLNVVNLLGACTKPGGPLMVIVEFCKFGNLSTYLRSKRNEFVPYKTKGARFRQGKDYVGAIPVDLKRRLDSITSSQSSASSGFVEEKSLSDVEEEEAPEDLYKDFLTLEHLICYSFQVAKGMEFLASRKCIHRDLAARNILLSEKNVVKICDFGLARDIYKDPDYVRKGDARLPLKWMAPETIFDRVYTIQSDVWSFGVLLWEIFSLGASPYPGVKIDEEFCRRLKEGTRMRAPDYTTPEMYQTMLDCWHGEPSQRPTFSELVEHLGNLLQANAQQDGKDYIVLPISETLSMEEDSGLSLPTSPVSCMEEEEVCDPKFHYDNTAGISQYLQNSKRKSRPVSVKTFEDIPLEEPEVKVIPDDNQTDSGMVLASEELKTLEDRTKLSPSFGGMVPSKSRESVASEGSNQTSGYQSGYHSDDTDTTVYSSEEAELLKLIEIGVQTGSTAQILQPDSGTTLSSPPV
As to the kind of experiment: VEGFR2 in vitro kinase inhibitory activity assay. The format is biochemical. The conditions noted are these: read-out: VEGFR2 IC50(μM) or % I. As for the experimental part:
FGFR3, VEGFR2 and PDGFR in vitro Kinase Inhibitory Activity Assays
Enzymes (from Upstate), prepared at 2× final concentration, were incubated with test compounds, biotinylated Flt3 substrate (biotin-VASSDNEYFYVDF) (Cell Signalling Technology Inc.) and ATP in the appropriate assay buffer (Table 1). The reaction was allowed to proceed for 3 hours (FGFR3), 1 hour (VEGFR2, PDGFR-beta) at room temperature on a plate shaker at 700 rpm before being stopped with 35 mM EDTA, pH 8 (FGFR3, VEGFR2) or 55 mM EDTA, pH 8 (PDGFR-beta). 5× detection mix/50 mM HEPES pH 7.5, 0.1% BSA, 11.34 nM Eu-anti-pY (PY20) (PerkinElmer) 74 nM SA-XL665 (Cisbio) for FGFR3, 50 mM HEPES, pH 7.5, 0.1% BSA, 11.34 nM Eu-anti-pY (PY20), 187.5 nM SA-XL665 for VEGFR2 and 50 mM HEPES, pH 7.5, 0.1% BSA, 11.34 nM Eu-anti-pY (PT66) (PerkinElmer), 375 nM SA-XL665 (Cisbio) for PDGFR-beta) was then added to each well and the plate sealed and incubated at room temperature for one hour on a plate shaker at 700 rpm. The plate was then read on a Packard Fusion plate reader or a BMG Pherastar both in TRF mode.
Kinase Assay buffers were:
B: 50 mM HEPES pH 7.5, 6 mM MnCl2, 1 mM DTT, 0.01% TritonX-100, 0.1 mM Sodium orthovanadate

In test [4] the test system is Ba/F3-Flt3 cells. As to the kind of experiment: Ba/F3-Flt3 assay (Alamar Blue). It is filed as cell-based, murine. The conditions noted are these: Mus musculus, 24 h; with 10 ng/ml murine IL3; read-out: Ba/F3-flt3 + IL3 pIC50 (converted). An excerpt: Ba/F3, a murine interleukin-3 dependent pro-B cell line is increasingly popular as a model system for assessing both the potency and downstream signaling of kinase oncogenes, and the ability of small-molecule kinase inhibitors to block kinase activity. Facilitated by their growth properties. Ba/F3 cells have recently been adapted to high throughput assay formats for compound profiling. Further, several published approaches show promise in predicting resistance to small-molecule kinase inhibitors elicited by point mutations interfering with inhibitor binding (Ba/F3 cells and their use in kinase drug discovery; Markus Warmuth, Sungjoon Kim, Xiang-ju Gu, Gang Xia and Francisco Adria'n; Curr Opin Oncol 19:55-60).
Ba/F3-Flt3 cells (cultured in phenol red free RPMI-1640, 10% A FCS and 50 μg/ml Gentamycin at 37° C. and 5% 002) were plated at a density of 10000 cells in a total volume of 180 μl medium in a black TC-treated sterile 96-well plate (Corning). After 24 hours, drugs in different dilutions were added to a final volume of 200 μl and at a final DMSO concentration of 0.2% prior to incubation at 37° C., and 5% CO2.
After 24 h, to each well 40 μl Alamar Blue solution (Aldrich) was added and the cells were further incubated for 4 hours at 37° C. Fluorescence (ex. 544, em. 590 nm) was measured using a fluorescence reader (Labsystems) and IC50's were calculated.
In the condition containing IL3, 10 ng/ml of murine IL3 (PeproTech) was added during compound incubation.

T1 sequence (P22607 whole entry, change not shown, the tested form may be a part): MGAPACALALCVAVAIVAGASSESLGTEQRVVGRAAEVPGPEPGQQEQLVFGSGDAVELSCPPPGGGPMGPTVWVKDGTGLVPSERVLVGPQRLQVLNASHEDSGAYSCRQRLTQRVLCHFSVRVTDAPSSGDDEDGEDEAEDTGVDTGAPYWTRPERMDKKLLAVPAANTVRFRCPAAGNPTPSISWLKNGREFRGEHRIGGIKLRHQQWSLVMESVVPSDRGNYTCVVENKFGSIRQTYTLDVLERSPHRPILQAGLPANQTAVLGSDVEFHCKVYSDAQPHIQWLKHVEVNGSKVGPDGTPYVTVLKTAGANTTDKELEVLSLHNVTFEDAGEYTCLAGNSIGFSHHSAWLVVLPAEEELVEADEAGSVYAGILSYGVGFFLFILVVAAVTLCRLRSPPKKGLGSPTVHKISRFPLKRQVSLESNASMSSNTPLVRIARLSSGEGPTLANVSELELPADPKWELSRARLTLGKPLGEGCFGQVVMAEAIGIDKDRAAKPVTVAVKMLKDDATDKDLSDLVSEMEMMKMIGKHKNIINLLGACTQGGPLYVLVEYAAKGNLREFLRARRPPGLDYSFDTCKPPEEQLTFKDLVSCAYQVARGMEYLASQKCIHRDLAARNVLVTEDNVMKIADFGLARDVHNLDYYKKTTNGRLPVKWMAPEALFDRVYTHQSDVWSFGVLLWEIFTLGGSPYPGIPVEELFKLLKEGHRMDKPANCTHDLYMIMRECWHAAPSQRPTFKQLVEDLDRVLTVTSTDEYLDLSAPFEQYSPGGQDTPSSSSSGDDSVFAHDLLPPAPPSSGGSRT

Take `CC(C)Oc1cc(NC(=O)NCC(F)(F)F)cc(-c2cnc3cc(-c4ncc(F)c(N)n4)ccn23)c1` [Compound F-1, 1-{3-[7-(4-Amino-5-fluoro-pyrimidin-2-yl)-imidazo[1,2-a]pyridin-3-yl]-5-isopropoxy-phenyl}-3-(2,2,2-trifluoro-ethyl)-urea]: the GI50 in test [1] came to 120 nM. For the same compound, in test [2], the minimal effective concentration is > 10 µM. Besides, the IC50 is 1.35 µM in test [3] and > 10000 nM in test [4].

Take `CC(C)Oc1cc(NC(=O)NCC(F)(F)F)cc(-c2cnc3cc(-c4ncccn4)ccn23)c1` [Compound F-2, 1-[3-Isopropoxy-5-(7-pyrimidin-2-yl-imidazo[1,2-a]pyridin-3-yl)-phenyl]-3-(2,2,2-trifluoro-ethyl)-urea]: in test [1], the GI50 was found to be 170 nM. Further, the minimal effective concentration in test [2] is > 10 µM. The IC50 in test [3] is 1.14 µM; in test [4], > 10000 nM.

As to `Cc1nc(-c2ccn3c(-c4cc(NC(=O)NCC(F)(F)F)cc(OC(C)C)c4)cnc3c2)ccc1F` [Compound F-3, 1-{3-[7-(5-Fluoro-6-methyl-pyridin-2-yl)-imidazo[1,2-a]pyridin-3-yl]-5-isopropoxy-phenyl}-3-(2,2,2-trifluoro-ethyl)-urea], the GI50 in test [1] is 330 nM. For the same compound, the minimal effective concentration in test [2] was > 10 µM. Also, the IC50 in test [3] was 0.48 µM; in test [4], > 10000 nM.

For `Cc1nc(N)cc(-c2ccn3c(-c4cc(NC(=O)NCC(F)(F)F)cc(OC(C)C)c4)cnc3c2)n1` [Compound F-4, 1-{3-[7-(6-Amino-2-methyl-pyrimidin-4-yl)-imidazo[1,2-a]pyridin-3-yl]-5-isopropoxy-phenyl}-3-(2,2,2-trifluoro-ethyl)-urea], the “BaF3-TEL-FGFR3 prolif (μM)” value in test [1] (% at 0.100 μM) was 50.0% at 0.100 μM. The minimal effective concentration in test [2] was 1 µM. Also, the IC50 in test [3] is 0.1 µM; in test [4], > 10000 nM.

As for `Cc1nnc(-c2ccn3c(-c4cc(NC(=O)NCC(F)(F)F)cc(OC(C)C)c4)cnc3c2)o1` [Compound F-5, 1-{3-Isopropoxy-5-[7-(5-methyl-[1,3,4]oxadiazol-2-yl)-imidazo[1,2-a]pyridin-3-yl]-phenyl}-3-(2,2,2-trifluoro-ethyl)-urea], the GI50 in test [1] was 220 nM. The minimal effective concentration in test [2] is > 10 µM. Further, the IC50 is 0.635 µM in test [3] and > 10000 nM in test [4].

As for `CC(C)Oc1cc(NC(=O)NCC(F)(F)F)cc(-c2cnc3cc(C(=O)C4CC4)ccn23)c1` [Compound F-6, 1-[3-(7-Cyclopropanecarbonyl-imidazo[1,2-a]pyridin-3-yl)-5-isopropoxy-phenyl]-3-(2,2,2-trifluoro-ethyl)-urea], the GI50 in test [1] was determined as 31 nM. In addition, in test [2], the minimal effective concentration was 3 µM. For the same compound, the results for the IC50 in test [3] and in test [4] were 0.074 µM and > 10000 nM, respectively.

In the case of `COCc1cc(NC(=O)NCC(F)(F)F)cc(-c2cnc3cc(-c4nnc(C)o4)ccn23)c1` [Compound F-7, 1-{3-Methoxymethyl-5-[7-(5-methyl-[1,3,4]oxadiazol-2-yl)-imidazo[1,2-a]pyridin-3-yl]-phenyl}-3-(2,2,2-trifluoro-ethyl)-urea], the GI50 in test [1] is 350 nM. Moreover, in test [2], the minimal effective concentration was determined as 10 µM. Also, the IC50 is 0.17 µM in test [3] and > 10000 nM in test [4].

For `CC(C)Oc1cc(NC(=O)NCC(F)(F)F)cc(-c2cnc3cc(-c4ccnc(C(F)(F)F)n4)ccn23)c1` [Compound F-8, 1-{3-Isopropoxy-5-[7-(2-trifluoromethyl-pyrimidin-4-yl)-imidazo[1,2-a]pyridin-3-yl]-phenyl}-3-(2,2,2-trifluoro-ethyl)-urea], in test [1], the GI50 stood at 170 nM. Further, the minimal effective concentration in test [2] came to 5 µM. In addition, the IC50 in test [3] was 1.2 µM; in test [4], > 10000 nM.

For the compound `COCc1cc(NC(=O)NCC(F)(F)F)cc(-c2cnc3cc(-c4ccnc(C(F)(F)F)n4)ccn23)c1` [Compound F-9, 1-{3-Methoxymethyl-5-[7-(2-trifluormethyl-pyrimidin-4-yl)-imidazo[1,2-a]pyridin-3-yl]-phenyl}-3-(2,2,2-trifluoro-ethyl)-urea], the GI50 in test [1] was found to be 240 nM. In addition, the minimal effective concentration in test [2] stood at 2 µM. The IC50 is 0.057 µM in test [3] and > 10000 nM in test [4].

`CCNC(=O)Nc1cc(OC(C)C)cc(-c2cnc3cc(-c4nncs4)ccn23)c1` [Compound F-10, 1-Ethyl-3-[3-isopropoxy-5-(7-[1,3,4]thiadiazol-2-yl-imidazo[1,2-a]pyridin-3-yl)-phenyl]-urea]: the GI50 in test [1] worked out at 230 nM. For the same compound, in test [2], the minimal effective concentration amounted to 5 µM. The IC50 in test [3] is 0.36 µM; in test [4] it was > 10000 nM.

With `Cc1nnc(-c2ccn3c(-c4cc(NC(=O)NCC(F)(F)F)cc(OC5CCC5)c4)cnc3c2)o1` [Compound F-11, 1-{3-Cyclobutoxy-5-[7-(5-methyl-[1,3,4]oxadiazol-2-yl)-imidazo[1,2-a]pyridin-3-yl]-phenyl}-3-(2,2,2-trifluoro-ethyl)-urea], the GI50 in test [1] is 520 nM. Moreover, in test [2], the minimal effective concentration is > 10 µM. Further, the inhibition at 1 µM in test [3] (1 h, % I at 1 μM) was 59%. In test [4], the IC50 is > 10000 nM.
